Experimental data published in patent publication US11603368B2, “Fused thiophene derivatives and their uses” (ENYO PHARMA, priority 2018, dated 2023).
Where a name gives a salt, the structure may show the parent alone.

What was measured:
[1] = target: T1, CISD3 Gene Product (Miner2) (Homo sapiens, UniProt P0C7P0); test: Stability of Fe—S cluster binding of purified NEET protein Miner2; type: biochemical; settings: pH 6, 37° C., 1:3 protein:compound molar ratio
T1 sequence (P0C7P0 15-127): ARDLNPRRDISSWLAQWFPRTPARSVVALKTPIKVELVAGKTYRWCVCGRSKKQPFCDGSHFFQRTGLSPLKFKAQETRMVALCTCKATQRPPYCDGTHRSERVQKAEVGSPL
Experimental: (§1) The modulator effect on the NEET proteins encoded by human CISD1, CISD2, and CISD3 genes by the compounds of the invention has been tested and is reported below. Particularly, the biochemical function of the NEET proteins is measured by the stability of Fe—S cluster binding of the purified NEET proteins.
(§2) The Fe—S cluster binding capacity of NEET proteins is known to be coordinated by four amino-acids in a stretch of 16 (three Cysteine and one Histidine). As the lability of the Fe—S cluster of NEET proteins is sensitive to the environment, cluster stability measurements are one of the measures of interactions of NEET proteins with small molecules and compounds. NEET protein/2Fe-2S cluster stability can be assessed by monitoring the decay in absorbance of its characteristic 458-nm peak (characteristic of the oxidized 2Fe-2S cluster) over time. Each NEET protein (mitoNEET, NAF-1 and Miner 2) was tested for its Fe—S binding in the absence or presence of a compound according to the invention (see table 2 below). The rate of cluster release (time in minutes to achieve 50% loss of bound Fe—S cluster) was compared for each NEET protein in the presence of one of the compounds of the invention (in a 1:3 protein:compound molar ratio) relative to each protein alone.
(§3) At pH 6, all the three NEET proteins (mitoNEET, NAF-1 and Miner 2) have a characteristic rate of loss of the bound Fe—S cluster that can be measured by the decrease of absorbance at wavelength 458 nm over time, using a spectrophotometer. Thus, Bis-Tris buffer (100 mM Bis-Tris pH6, 100 mM Nacl) was used at pH 6 to dilute either DMSO (Blank sample: Bis-Tris Buffer pH 6, 6 μM DMSO), DMSO and one of the three NEET proteins (Control sample: Bis-Tris Buffer pH 6, 6 μM DMSO, 2 μM purified NEET protein) or DMSO, one of the three NEET proteins and a compound of the invention (Test sample: Bis-Tris Buffer pH 6, 6 μM DMSO, […], 6 μM compound of the invention).
(§4) A reaction mix containing DMSO diluted in the Bis-Tris Buffer with or without a compound of the invention was prepared. The purified NEET protein was the last component added to the reaction mix which was then aliquoted into 4 replicates in 96 wells plates. The absorbance at wavelength 458 nm was taken at 5 minutes intervals at 37° C. with a spectrofluorimeter. The assay run time for CISD2 gene product (NAF-1) was 500 minutes and 180 minutes for both the CISD 1 gene product (mitoNEET) and the CISD3 gene product (Miner 2).
(§5) In addition to time monitoring, residual bound Fe—S cluster to NEET protein was measured at the final point of the spectrometry assay for each Test sample and compared to the Control sample data (in parenthesis table 2). This residual binding is measured by the differential percentage between the absorbance 458 nm at time zero and the absorbance 458 nm at the end of the experiment (i.e. respectively 500 or 180 minutes as described hereabove), showing the percentage of NEET protein still able to bind a Fe—S cluster.
(§6) Analysis of the absorbance enables the time for which 50% loss of bound Fe—S cluster is reached (i.e. a 50% absorbance decrease at 458 nm) for each Test sample and each Control sample (in parenthesis table 2) to be determined. The data are then compared to determine whether the compound of the invention stabilizes or destabilizes the NEET protein/Fe—S cluster binding.

[2] = target: T2, CISD1 Gene Product (mitoNEET) (Homo sapiens, UniProt Q9NZ45); test: Stability of Fe—S cluster binding of purified NEET protein mitoNEET; type: biochemical; settings: pH 6, 37° C., 1:3 protein:compound molar ratio
T2 sequence (Q9NZ45 33-108 limits assumed): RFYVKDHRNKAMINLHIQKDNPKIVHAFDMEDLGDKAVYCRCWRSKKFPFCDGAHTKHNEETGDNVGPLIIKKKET
Experimental: as §1, §2, §3, §4, §5, §6

[3] = tested on: H1N1 (influenza A/New Caledonia/20/99); test: Antiviral effect on A549 cells infected with H1N1; type: cell-based, H1N1 A/New Caledonia/20/99 virus; settings: Human A549 cells, MOI of 0.1, 48 h post-infection, MUNANA hydrolysis readout
Experimental: The antiviral effect of the compounds of the invention has been tested on A549 cell lines infected with H1N1 (influenza A/New Caledonia/20/99).
Human A549 cells (80,000 cells/well in a 96 well plate) were treated with a range of concentration of test molecules and immediately infected by H1N1 A/New Caledonia/20/99 virus (clinical isolate) at MOI of 0.1 in DMEM/1% Penicillin/streptomycin supplemented with 0.25 μg/ml TPCK trypsin (Sigma) and incubated at 37° C. in 5% CO2. 48 h post-infection, supernatants (25 μl) were collected and transferred into a 96-well black flat-bottom plate, mixed with 25 μl PBS with Ca++/Mg++(Thermo Fisher) and 50 μl of 2′-(4-Methylumbelliferyl)-α-D-N-acetylneuraminic acid sodium salt hydrate stock-solution (20 μM, MUNANA, Sigma). Plates were incubated 1 h at 37° C. and reaction is stopped by adding 100 μl of Stop Solution (glycine 0.1 M pH10.7/25% ethanol). The amount of fluorescent product released by MUNANA hydrolysis (4-MU) was measured in a Tecan spectrophotometer with excitation and emission wavelengths of 365 and 450 nm respectively.

[4] = target: T3, CISD2 Gene Product (NAF-1) (Homo sapiens, UniProt Q8N5K1); test: Stability of Fe—S cluster binding of purified NEET protein NAF-1; type: biochemical
T3 sequence (Q8N5K1 57-135 limits assumed): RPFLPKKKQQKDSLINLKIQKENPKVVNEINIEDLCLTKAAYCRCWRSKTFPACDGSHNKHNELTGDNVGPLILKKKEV
Experimental: as §1, §2, §3, §4, §5, §6

[5] = Influenza A virus, H1N1, A549, 48 h

SMILES | IC50 [3, 5] [nM] | also measured
CC(C)OC1CCc2c(sc(NC(=O)c3ccccc3)c2C(=O)O)C1 (centres unmarked) [#103] | 970 | Time (in minutes) to achieve 50% loss of bound cluster (Absorbance 458 nm), CISD3 Gene Product (Miner2) ([1]; 6 μM compound, run time 180 minutes, Vehicle Control 60): 65 min; Residual cluster bound at end of experiment (Percentage Absorbance 458 nm at time zero), CISD3 Gene Product (DMSO 11%) ([1]; end of 180 minutes, Vehicle Control 11%): 20%; Time (in minutes) to achieve 50% loss of bound cluster (Absorbance 458 nm), CISD1 Gene Product (mitoNEET) ([2]; 6 μM compound, run time 180 minutes, Vehicle Control 80): 95 min; Residual cluster bound at end of experiment (Percentage Absorbance 458 nm at time zero), CISD1 Gene Product (mitoNEET) ([2]; end of 180 minutes, Vehicle Control 16%): 4%; Time (in minutes) to achieve 50% loss of bound cluster (Absorbance 458 nm), CISD2 Gene Product (NAF-1) ([4]; pH 6, 37° C., 1:3 protein:compound molar ratio, 6 μM compound, run time 500 minutes, Vehicle Control 310): 415 min; Residual cluster bound at end of experiment (Percentage Absorbance 458 nm at time zero), CISD2 Gene Product (NAF-1) ([4]; pH 6, 37° C., 1:3 protein:compound molar ratio, end of 500 minutes, Vehicle Control 3%): 4%; stabiliser or destabiliser of Fe—S cluster binding, CISD2 Gene Product (NAF-1) ([4]; time to 50% Fe—S cluster bound loss changed by more than 25% vs Control sample, at the concentrations tested): Stabilisers
CC(C)(C)C1CCc2c(sc(NC(=O)c3ccc(OC(F)(F)F)cc3)c2C(=O)O)C1 (centres unmarked) [#8] | 38.5 | –
Cc1ccccc1N1CCc2c(sc(NC(=O)c3ccccc3)c2C(=O)O)C1 [#57] | 210 | –
COc1ccc(C(=O)Nc2sc3c(c2C(=O)O)CCC(C(C)(C)C)C3)c(F)c1 (centres unmarked) [#5] | 60 | –
CC(C)(C)C1CCc2c(sc(NC(=O)c3ccccc3C(F)(F)F)c2C(=O)O)C1 (centres unmarked) [#97] | 800 | –
CC(C)(C)C1CCc2c(sc(NC(=O)c3ccc(OCCCN)cc3)c2C(=O)O)C1 (centres unmarked) [#124, hydrochloride salt] | 2700 | –
COc1ccccc1C(=O)Nc1sc2c(c1C(=O)O)CCC(C(C)(C)C)C2 (centres unmarked) [#104] | 1050 | –
Cc1ccoc1C(=O)Nc1sc2c(c1C(=O)O)CCC(C(C)(C)C)C2 (centres unmarked) [#110] | 1200 | –
Cc1ccccc1C(=O)Nc1sc2c(c1C(=O)O)CCC2 [#121] | 2350 | –
CC(C)(C)C1CCc2c(sc(NC(=O)c3ccccc3F)c2C(=O)O)C1 (centres unmarked) [#73] | – | IC50 [3]: 180 nM
O=C(Nc1sc2c(c1C(=O)O)CCCC2)c1ccccc1 [#77] | 260 | –
O=C(Nc1sc2c(c1C(=O)O)CCC2)c1ccc(NCC2CCOCC2)cc1 [#211] | 260 | –
O=C(Nc1sc2c(c1C(=O)O)CCC(c1ccccc1)C2)c1ccc(OCCO)cc1 (centres unmarked) [#50] | 90 | –
O=C(Nc1sc2c(c1C(=O)O)CCC(c1ccccc1)C2)c1ccccc1 (centres unmarked) [#47A] | – | IC50 [3]: 40 nM
O=C(Nc1sc2c(c1C(=O)O)CCN(c1ccc(C(F)(F)F)cc1)C2)c1ccccc1 [#92] | 660 | –
COc1cc(C(=O)Nc2sc3c(c2C(=O)O)CCC(C(C)(C)C)C3)cc(OC)c1OC (centres unmarked) [#4] | 1070 | –
O=C(Nc1sc2c(c1C(=O)O)C1CCC2C1)c1ccccc1 (centres unmarked) [#28] | – | IC50 [3]: 1270 nM
Cc1cccc(C)c1C(=O)Nc1sc2c(c1C(=O)O)CCC(C(C)(C)C)C2 (centres unmarked) [#118] | 1950 | –
CC1CCCCC1C(=O)Nc1sc2c(c1C(=O)O)CCC(C(C)(C)C)C2 (centres unmarked) [#89] | 590 | –
CC(C)(C)C1CCc2c(sc(NC(=O)c3ccccc3C(F)(F)F)c2C(=O)O)C1 (centres unmarked) [#109] | – | IC50 [3]: 1200 nM
Cc1ccccc1C(=O)Nc1sc2c(c1C(=O)O)CCC(c1ccccc1)C2 (centres unmarked) [#45] | 338 | –
COC1CN(c2ccc(C(=O)Nc3sc4c(c3C(=O)O)CCCC4)cc2)C1 [#215] | 110 | –
CC(C)(C)C1CCc2c(sc(NC(=O)c3ccccc3C(F)(F)F)c2C(=O)O)C1 (centres unmarked) [#100] | – | IC50 [3]: 873 nM

SMILES | IC50 [3, 5] [nM] | also measured
Cc1ccccc1C(=O)Nc1sc2c(c1C(=O)O)CCN(CC(C)C)C2 [#129, formate salt] | 16600 | –
COCCNc1ccc(C(=O)Nc2sc3c(c2C(=O)O)CC(C)(C)OC3(C)C)cc1 [#234] | 980 | –
COc1ccc(C(=O)Nc2sc3c(c2C(=O)O)C(C)CCC3)c(F)c1 (centres unmarked) [#76] | 218 | –
COc1ccc(C(=O)Nc2sc3c(c2C(=O)O)CCN(c2ccc(F)cc2)C3)cc1OC [#113] | 1370 | –
COc1ccc(C(=O)Nc2sc3c(c2C(=O)O)CCC(C(C)(C)C)C3)c(F)c1F (centres unmarked) [#6] | 90 | –
COc1ccc(C(=O)Nc2sc3c(c2C(=O)O)C(C)CCC3)cc1OC (centres unmarked) [#81] | 339 | –
Cc1ccccc1C(=O)Nc1sc2c(c1C(=O)O)CCC(C)C2 (centres unmarked) [#86] | 410 | –
COc1cccc(C(=O)Nc2sc3c(c2C(=O)O)CCC(C(C)(C)C)C3)c1 (centres unmarked) [#2] | 70 | –
CC(C)(C)C1CCc2c(sc(NC(=O)c3ccc(OCCO)cc3)c2C(=O)O)C1 (centres unmarked) [#12] | 450 | –
CC(C)(C)C1CCc2c(sc(NC(=O)N3CCCCC3)c2C(=O)O)C1 (centres unmarked) [#120] | 2270 | –
COCCOc1ccc(C(=O)Nc2sc3c(c2C(=O)O)CCC(c2ccccc2)C3)cc1 (centres unmarked) [#51] | 38 | –
CC(C)(C)C1CCc2c(sc(NC(=O)c3ccc(F)cc3)c2C(=O)O)C1 (centres unmarked) [#68] | 120 | –
CC1(C)Cc2c(sc(NC(=O)c3ccc(NCC4CCOCC4)cc3)c2C(=O)O)C(C)(C)O1 [#233] | 220 | –
O=C(Nc1sc2c(c1C(=O)O)C(c1ccccc1)CCC2)c1ccc(OC(F)F)cc1 (centres unmarked) [#108] | 1170 | –
COc1ccc(C(=O)Nc2sc3c(c2C(=O)O)CCN(c2ccc(F)cc2C)C3)c(F)c1 [#55] | 410 | –
O=C(Nc1sc2c(c1C(=O)O)CCC2)c1ccccc1 [#210] | 817 | –
Cc1ccccc1C(=O)Nc1sc2ccccc2c1C(=O)O [#128] | 5000 | –
O=C(Nc1sc2c(c1C(=O)O)CCC(c1ccc(O)cc1)C2)c1ccccc1 (centres unmarked) [#122] | 2370 | –
CC1CCCc2sc(NC(=O)c3ccc(OC(F)F)cc3)c(C(=O)O)c21 (centres unmarked) [#75] | 210 | –
CC(C)(C)C1CCc2c(sc(NC(=O)c3ccccc3F)c2C(=O)O)C1 (centres unmarked) [#238] | – | IC50 [3]: 310 nM
O=C(Nc1sc2c(c1C(=O)O)CCCCC2)c1ccccc1 [#84] | 400 | –
COC1CN(c2ccc(C(=O)Nc3sc4c(c3C(=O)O)CC(C)(C)OC4(C)C)cc2)C1 [#217] | 510 | –
Cc1ccccc1C(=O)Nc1sc2c(c1C(=O)O)CCN(C(=O)OC(C)(C)C)C2 [#126] | 2900 | –
